Reference: US20080051646A1, “Probe for cellular oxygen” (priority 2006, published 2008)
Where no end group is shown, it is not given here. PtCP = not defined here

How the values were obtained:
Assay type in all cases: cell-based
A549 cells = assay: Intracellular oxygen imaging of loaded cells treated with effector compounds
Experimental: (§1) Loading of the cells with the PtCPK-BSA and PdCPK-BSA based probes (as described in Example 2) was carried out in the same way as described in Example 3 for the PtCP-BSA probes (i.e. 5 h in serum-free medium for the Escort or 24 h in serum-rich medium for Endoporter). A549 and HeLa cells loaded with PtCPK-BSA and PdCPK-BSA probes were then washed and analyzed by fluorescence microscopy. Imaging experiments of cells loaded with the probes were carried out on an Olympus IX51 inverted fluorescence microscope equipped with 75 W Xenon Arc Lamp (Cairn), an Optoscan Monochromator (Cairn) and an Orca-ER CCD camera (Hamamatsu). Live cell imaging was carried out using an Olympus UplanFl 1.3 NA 100× oil-immersion objective. The images were analysed using Kinetic Imaging AQM Advanced software (Version 6). The PtCPK and PdCPK probes were imaged under excitation at wavelengths of 395 nm and 400 nm respectively collecting the phosphorescence emission using a 600 nm cut-off filter.
(§2) Adherent A549, HeLa and SH-SY5Y cells were grown under normal conditions. Cells were loaded with probes based on PtCPK-BSA and PdCPK-BSA and Escort III (described in Example 2), and treated with various effector compounds with known mechanisms of action on cell metabolism and cellular response to the effector compounds was observed under a fluorescent microscope.
The effect of Ca-channel agonist ryanodine (20 nM) on SH-SY5Y cells, with up-regulation of cell metabolism by inducing a release of Ca2+ from intracellular stores, is shown in FIG. 4. […] An approximately 40% drop in PtCPK phosphorescence was observed as the base rate of respiration was inhibited resulting in higher levels of intracellular oxygen emanating from O2 influx from the extracellular medium.
The specificity of the CMC response was confirmed by incubating A549 cells with an equimolar concentration of the ryanodine channel blocker procaine followed by CMC treatment. In this case, phosphorescence intensity increased by less than 10% after the introduction of CMC.

Jurkat T cells = assay: Lifetime of cell-surface-bound WGA-PtCP probe on Victor2 time resolved reader; conditions: Jurkat cells loaded with WGA-PtCP probe; 1 μM; basal 25 μs
Experimental: Wheat germ agglutinin (WGA) at 1 mg/ml concentration in 0.1 M Na carbonate, pH 8.6 was labelled with the PtCP-NCS dye using a 20-molar excess of dye. After two hours of incubation at room temperature, the resulting conjugate was separated from the free dye as described in example 1 above. Jurkat T cells and human B cells were incubated with WGA-PtCP probe at 1 μM concentration for 30 min at 37° C. in RPMI medium, to achieve binding of the probe to glycoproteins on cell surface. After washing of loaded cells with medium, local oxygen concentration (at cell surface and within the cell) was assessed. and responses to effectors of respiration such as 1 μM FCCP were measured. Lifetimes of the cells loaded with WGA-PtCP probe was measured on a time resolved fluorescent reader Victor^2, using excitation at 340 nm excitation and 642 nm emission filters, and pairwise intensity readings at delay times 30 and 70 μs (at gate time 100 μs). Basal lifetime of resting Jurkat cells was recorded as 25 μs, moving to 32 μs upon the addition of FCCP (uncoupler of respiration). Under the same conditions, using the PtCP-BSA conjugate which had no ability to bind to the cells and remained in extracellular medium, intracellular oxygen gradients and responses to effectors were undetectable.

Jurkat T-cells = assay: Phosphorescence lifetime of PtCP-BSA probe in Jurkat cells on a fluorescent lifetime spectrometer; conditions: for change in intracellular probe phosphorescence lifetime after effector: Jurkat cells loaded with PtCP-BSA-Escort III probe, 1 μM, three minute intervals
Experimental: Jurkat T-cells were grown in RPMI medium supplemented with 10% FBS, 2 mM L-glutamine, 100 U/ml penicillin and 100 μg/ml streptomycin.
For loading, the PtCP-BSA based probe comprising PtCP-BSA conjugate formulated with Escort III (described in Example 1) was used. Probe solution was pre-warmed by incubating at 37° C for 15 min followed by addition of 100 μl of the probe solution to the cell culture dish containing 800 μl of serum free medium. The cells and probe solution were incubated for 5 hours in a 5% CO2 incubator at 37° C., cells were then washed with 1 ml of serum free medium three times.
Loading of the cells loaded with the PtCP-based probe(s) was initially assessed by measurement on a fluorescent lifetime spectrometer Cary Eclipse (Varian), both in the intracellular environment (i.e. after loading and washing of the cells) and in the extracellular medium (at the start of loading, no washing). […] The inhibitor blocks oxygen consumption and adjusts intracellular oxygen levels to air-saturated levels.
Jurkat T-cell lymphoma cells were grown under normal conditions and loaded with the PtCP-BSA-Escort III based probe (as described in Example 1) using the method described in Example 3. Following washing the basal level of intracellular oxygen was assessed by measuring the phosphorescence lifetime of the PtCP probe using a Cary Eclipse spectrofluorometer and analyzing phosphorescence decays using Origin™ software (single-exponential fits). Phosphorescence lifetimes of the intracellular probe in loaded cells were measured at three minute intervals following the addition of 1 μM valinomycin.

HeLa cells = assay: Intracellular oxygen imaging of loaded cells treated with valinomycin; conditions: HeLa cells loaded with PtCPK-BSA or PdCPK-BSA; 1 μM
Experimental: as §1
as §2, with “microscope. […]” for “microscope.”

PC12 cells = assay: Mitochondria-targeted probes in loaded cells on the Victor reader
Experimental: The PtCP-BSA conjugate, synthesized as described in Example 1 was additionally labelled with a synthetic oligopeptide containing the following sequence: […]. The peptide comprises a mitochondria targeting sequence (according to http://psort.ims.u-tokyo.ac.jp), a terminal cysteine group was used for the conjugation. Labelling with the peptide was achieved by means of a heterobifunctional reagent—succinimide ester of maleimidopropionic acid. The PtCP-BSA conjugate was incubated with 10-molar excess of the reagent in 0.1 M phosphate buffer, pH 7.8 for 4 hours at room temperature, then separated on a PD-10 column in the same buffer. The peak of activated PtCP-BSA was collected, mixed with 10-molar excess of the peptide, incubated for further 6 hours. Finally, the PtCP-BSA-peptide conjugate was separated on a PD-10 column.
Alternatively, the peptide was conjugated directly to PtCP. The monofunctional maleimide derivative of PtCP was used, which reacts spontaneously with —SH groups on the peptide (terminal cysteins) to form stable covalent linkage. […]
Probes incorporating the PtCP-BSA-peptide and PtCP-peptide conjugates (successful labelling was confirmed by MALDI mass spectrometry) were formulated with Endoporter agent and used for cell loading as described in Examples 3 to 8. PC12 cells loaded with these probes produced high signals on the Victor reader.

In the case of `Cc1cc(O)ccc1Cl` [CMC, 4-chloro-meta-cresol], the “increase of phosphorescence intensity” value (A549 cells; A549 cells pre-incubated with equimolar procaine, then 500 μM CMC) was “less than 10%” and the “effect on the phosphorescence” value (A549 cells; respiring A549 cells loaded with PtCPK-BSA, 500 μM) was “pronounced effect”.
In the case of `N#CC(C#N)=NNc1ccc(OC(F)(F)F)cc1` [FCCP], the “lifetime upon addition of uncoupler” value (Jurkat T cells) was 32 μs.
`CC(C)[C@@H]1NC(=O)[C@H](C)OC(=O)[C@@H](C(C)C)NC(=O)[C@@H](C(C)C)OC(=O)[C@H](C(C)C)NC(=O)[C@H](C)OC(=O)[C@@H](C(C)C)NC(=O)[C@@H](C(C)C)OC(=O)[C@H](C(C)C)NC(=O)[C@H](C)OC(=O)[C@@H](C(C)C)NC(=O)[C@@H](C(C)C)OC1=O` [valinomycin] was tested, and the “change in intracellular probe phosphorescence lifetime after effector” value (Jurkat T-cells) was “increase in probe lifetime was significantly faster than in a control sample”, the “phosphorescence response to effector” value (A549 cells; A549 cells loaded with PtCPK-BSA or PdCPK-BSA, 1 μM) was “rapid and cell specific” and the “phosphorescence response to effector” value (HeLa cells) was “rapid and cell specific”.
“PtCP-peptide: PtCP-maleimide conjugated directly to peptide VLTPLLLRGLTGSARRLPVPRAKAC (VLTPLLLRGLTGSARRLPVPRAKAC(PtCP); reading uncertain)” was tested, and the “signals of loaded cells on the Victor reader” value (PC12 cells; formulated with Endoporter) was “high signals” and the “phosphorescence lifetimes of resting loaded cells compared with PtCP-BSA probe” value (PC12 cells; resting) was “higher”.
In the case of antimycin A, the “probe lifetime after addition of inhibitor” value (Jurkat T-cells; Jurkat cells loaded with PtCP-BSA probe, basal 31 μs, lifetime decreases and levels off) was roughly 25 μs, the “change in intracellular probe phosphorescence lifetime after effector” value (Jurkat T-cells) was “slight drop” and the “drop in PtCPK phosphorescence” value (A549 cells; A549 cells loaded with PtCPK-BSA/Escort III, 2 μM) was “approximately 40%”.
With ryanodine the “response of loaded cells, lower concentrations” value (A549 cells; A549 cells loaded with PtCPK, 2 nM and 20 nM) was “increased phosphorescence” and the “response of loaded cells, higher concentrations” value (A549 cells; A549 cells loaded with PtCPK, 200 nM and 2 μM) was “little oxygen uptake”.
